Patent US8053441B2, “Pyrazolylquinazolinones as potassium channel openers” (Janssen Pharmaceutica N.V., priority 2006, dated 2011)

Biological target: T1, KATP channels (Homo sapiens, UniProt O60706+Q14654)
T1 construct: TE671 human medulloblastoma cells were obtained from ATCC; host or cells: TE671 human medulloblastoma cells
Assay: Potassium Channel Assay (FLIPR membrane potential)
Format: cell-based
Set-up: key: A compound was designated as active if it produced greater than or equal to 10% response at 30 μM; A compound was designated as inactive if it produced less than 10% response at 30 μM
Conditions: TE671 human medulloblastoma cells, 30 μM, Membrane Potential Assay Dye
Method: TE671 human medulloblastoma cells were obtained from ATCC and grown in Dulbecco's modified Eagle's medium (DMEM) supplemented with 10% fetal bovine serum, 100 U/ml penicillin and 100 U/ml streptomycine.
The day before testing, the cells were plated in black 96-well plates at 50K/well. On the day of testing, the growth media was removed, then 100 μl of FLIPR buffer (20 mM HEPES, 120 mM NaCl, 2 mM KCl, 2 mM CaCl2, 1 mM MgCl2, 5 mM Glucose) and 100 μl of Membrane Potential Assay Dye (Molecular Devices) dissolved in FLIPR buffer were added to each well. The cells were incubated at room temperature for 15 to 30 min.
The effect of test compounds on KATP channels were evaluated on a fluorometric imaging plate reader (FLIPR, Molecular Devices) at room temperature. After a baseline period, 50 μl of 5× stock solution of test compound prepared in FLIPR buffer was added and fluorescent change was monitored for 3 minutes. After this reading, glyburide, a KATP channel blocker, was added to a final concentration of 5 μM to check the specificity of the test compound as a KATP channel openers. Hyperpolarization resulting from KATP channel opening was observed as a decrease in fluorescent intensity.
Representative compounds of the present invention were tested according to the procedure described above, with results as listed in Table 2 below. Test compound activity was determined as the percent. A compound was designated as active if it produced greater than or equal to 10% response at 30 μM.

T1 sequence (O60706 1-1549 isoform O60706-2): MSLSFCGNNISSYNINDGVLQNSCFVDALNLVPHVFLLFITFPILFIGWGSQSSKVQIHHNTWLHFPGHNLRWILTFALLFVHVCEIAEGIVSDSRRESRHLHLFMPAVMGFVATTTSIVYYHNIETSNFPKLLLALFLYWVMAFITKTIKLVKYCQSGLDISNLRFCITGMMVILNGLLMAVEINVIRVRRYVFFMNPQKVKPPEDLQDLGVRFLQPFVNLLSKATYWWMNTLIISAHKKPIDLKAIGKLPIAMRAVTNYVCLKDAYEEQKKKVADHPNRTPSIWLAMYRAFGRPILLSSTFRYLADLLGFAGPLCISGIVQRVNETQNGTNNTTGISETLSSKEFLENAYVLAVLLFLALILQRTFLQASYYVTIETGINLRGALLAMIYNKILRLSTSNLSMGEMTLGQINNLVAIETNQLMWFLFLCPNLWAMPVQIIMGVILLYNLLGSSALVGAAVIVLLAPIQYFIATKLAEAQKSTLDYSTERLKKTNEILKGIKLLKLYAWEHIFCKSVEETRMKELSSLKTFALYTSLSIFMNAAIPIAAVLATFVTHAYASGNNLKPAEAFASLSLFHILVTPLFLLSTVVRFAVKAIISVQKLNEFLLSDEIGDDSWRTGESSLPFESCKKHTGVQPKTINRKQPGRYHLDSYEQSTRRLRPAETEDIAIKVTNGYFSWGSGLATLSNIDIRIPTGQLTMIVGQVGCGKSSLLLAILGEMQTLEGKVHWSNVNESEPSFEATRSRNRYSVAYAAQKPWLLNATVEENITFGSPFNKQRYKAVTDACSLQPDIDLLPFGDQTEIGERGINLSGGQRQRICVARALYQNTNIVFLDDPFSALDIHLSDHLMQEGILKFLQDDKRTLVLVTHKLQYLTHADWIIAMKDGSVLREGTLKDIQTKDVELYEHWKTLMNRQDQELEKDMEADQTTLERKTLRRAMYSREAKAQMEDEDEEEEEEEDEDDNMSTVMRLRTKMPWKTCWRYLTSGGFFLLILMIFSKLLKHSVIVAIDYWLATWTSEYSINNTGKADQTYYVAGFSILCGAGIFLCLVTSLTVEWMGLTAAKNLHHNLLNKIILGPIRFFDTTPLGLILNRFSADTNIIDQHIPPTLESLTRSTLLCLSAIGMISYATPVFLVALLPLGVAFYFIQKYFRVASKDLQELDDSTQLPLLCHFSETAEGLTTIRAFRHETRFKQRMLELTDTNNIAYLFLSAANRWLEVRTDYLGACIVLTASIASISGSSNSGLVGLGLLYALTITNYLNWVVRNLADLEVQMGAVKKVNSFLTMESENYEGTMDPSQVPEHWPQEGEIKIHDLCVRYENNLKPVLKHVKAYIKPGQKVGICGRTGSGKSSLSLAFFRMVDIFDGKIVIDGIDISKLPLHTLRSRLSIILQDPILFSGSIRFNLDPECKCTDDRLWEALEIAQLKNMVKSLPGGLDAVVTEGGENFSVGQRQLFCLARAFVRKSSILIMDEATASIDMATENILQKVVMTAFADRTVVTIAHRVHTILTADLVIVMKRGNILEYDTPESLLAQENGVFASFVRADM
T1 sequence (Q14654 whole entry): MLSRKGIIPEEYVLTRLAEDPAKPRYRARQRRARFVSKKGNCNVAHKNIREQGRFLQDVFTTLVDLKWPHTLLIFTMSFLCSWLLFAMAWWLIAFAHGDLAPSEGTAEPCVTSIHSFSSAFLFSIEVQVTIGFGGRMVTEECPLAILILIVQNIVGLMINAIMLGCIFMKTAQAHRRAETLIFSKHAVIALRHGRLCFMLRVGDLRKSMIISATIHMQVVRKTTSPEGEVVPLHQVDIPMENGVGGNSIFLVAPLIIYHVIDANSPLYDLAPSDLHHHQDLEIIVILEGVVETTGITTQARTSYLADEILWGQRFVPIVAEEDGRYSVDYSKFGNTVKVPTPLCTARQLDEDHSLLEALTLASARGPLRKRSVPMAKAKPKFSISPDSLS

response	SMILES
active	CC1(c2nc3ccc(Br)cc3c(=O)[nH]2)CC=NN1 (stereo not shown) [compound 2, 6-Bromo-2-(3-methyl-3,4-dihydro-2H-pyrazol-3-vi)-3H-quinazolin-4-one]
active	CC1(c2nc3cc(C(F)(F)F)ccc3c(=O)[nH]2)CC=NN1 (stereo not shown) [compound 3, 2-(3-Methyl-3,4-dihydro-2H-pyrazol-3-yl)-7-trifluoromethyl-3H-quinazolin-4-one]
active	CCOC(=O)C1=NNC(C)(c2nc3ccc(Cl)cc3c(=O)[nH]2)C1 (stereo not shown) [compound 4, 5-(6-Chloro-4-oxo-3,4-dihydro-quinazolin-2-yl)-5-methyl-4,5-dihydro-1H-pyrazole-3-carboxylic acid ethyl ester]
active	CC1(c2nc3ccc(Cl)cc3c(=O)[nH]2)CC=NN1 (stereo not shown) [compound 1, 6-Chloro-2-(3-methyl-3,4-dihydro-2H-pyrazol-3-vi)-3H-quinazolin-4-one]
